We go through four compounds from publication PMC6271241, “Several Human Cyclin-Dependent Kinase Inhibitors, Structurally Related to Roscovitine, As New Anti-Malarial Agents” (Molecules, 2014).

Like-named read-outs stand apart in the source and are kept apart here. Some results are limits rather than exact numbers.

The target in data set [1] is CDK1/cyclin B. The experiment in a line: CDK1/cyclin B kinase assay ([γ-33P] ATP, histone H1). Format: biochemical, starfish. The following applies: 15 µM ATP, Table 1. The method, then:
(§1) CDK1/cyclin B (M phase starfish oocytes, native), CDK2/cyclin A (human, recombinant) and CDK5/p25 (human, recombinant) were prepared as previously described. […] ATP (3000 Ci/mmol; 10 mCi/mL) in a final volume of 30 µL. After 30 min incubation at 30 °C, 25 µL aliquots of supernatant were spotted onto 2.5 cm × 3 cm pieces of Whatman P81 phosphocellulose paper, and, 20 s later, the filters were washed five times (for at least 5 min each time) in a solution of 10 mL of phosphoric acid/liter of water. The wet filters were counted in the presence of 1 mL of ACS (Amersham, Pittsburgh, PA, USA) scintillation fluid.

The target of data set [2] is CK1δ/ε. The experiment in a line: CK1δ/ε kinase assay (CKS peptide). The following applies: read-out: IC50 CK1δ/ε; 15 µM ATP; Table 1.
Procedure: (§6) The effects on CDK1/cyclin B, CDK2/cyclin A, CDK5/p25, GSK-3αβ, CK1δ/ε and DYRK1A kinase activity are reported as the IC50 values calculated from dose-response curves. The inhibition was determined covering a range of concentrations of the compounds by means of a [γ-^33P] assay as described in the experimental section.
(§7) Controls were performed with appropriate dilutions of DMSO.
In another data set the test system is N2A-APP659 cell model. Details: method as in PMID 18698753. The following applies: dose-dependent; cited from earlier work.
The next data set concerns the target T1, CDK5/p25 (Homo sapiens, UniProt Q00535).
T1 construct: made in house
The data set can be described thus: CDK5/p25 kinase assay ([γ-33P] ATP, histone H1). It is filed as biochemical. The following applies: CDK5/p25, 15 µM ATP; Table 1; read-out: IC50 CDK5. The method, then:
as §1

In data set [3] the test system is CK1δ/ε. Also on record: method as in PMID 18698753. The following applies: read-out: IC50 CK1; cited from earlier work.
The next data set concerns the target GSK-3α/β. The experiment in a line: GSK-3α/β kinase assay (GS-1 peptide). The following applies: read-out: IC50 GSK-3αβ; 15 µM ATP; Table 1; >10 = no activity at 10 µM.
The subject of a further data set is CK1. Also on record: method as in PMID 10662688. The following applies: cited from earlier work.
The next data set has as its system recombinant PfPK5. Details: method as in PMID 10722743, PMID 11434907. The following applies: cited from earlier work.
For a further data set, the system named is Pf7G8. The data set can be described thus: [3H]hypoxanthine incorporation growth assay, Pf7G8. It is filed as cell-based, Plasmodium falciparum. The following applies: Plasmodium falciparum. Here is the method: (§2) A selection of 15 molecules 4b–c, 10–13 representing the different 2,6,9-trisubstituted purine series, including newly synthesized products was screened as anti-malarial agents on two different P. falciparum strains, Pf3D7, a standard drug-sensitive African stain, and Pf7G8, a brazilian chloroquino-resistant strain (Figure 3). The compound activity was evaluated during the parasitic erythocytic cycle, by the means of a [^3H] hypoxanthine incorporation assay. It is directly correlated to parasite viability, as described in the experimental section.
(§3) At first, the activity of the fifteen compounds was screened at three different concentrations (10, 50 and 100 µM) on Pf3D7. Chloroquine which is not a kinase inhibitor, but which is the antimalarial reference drug was used as the positive control. […] Chloroquine was again used as a positive control.
(§4) Compounds were tested against synchronous ring-stage parasites of Pf3D7 and Pf7G8 strains. Drugs testing were carried out in 96-well microtiter plates. The chloroquine (CQ) diphosphate was purchased from Sigma (Lyon, France). […] For each assay, each drug dilution was analyzed in triplicate.
(§5) For the in vitro isotopic microtest, 200 µL of the suspension of synchronous parasitized red blood cells with >90% of the parasites at the ring stage (final parasitaemia, 0.3%; final haematocrit, 4%) per well were plated in 96-well plates that contained serial CQ or compounds concentrations. […] The plates were incubated at 37 °C, in an atmosphere of 5% O2, 5% CO2, and 90% N2 for 48 h. Immediately after incubation, plates were frozen and then thawed to lyse the erythrocytes. Cultures were harvested onto glass fiber filters and washed using a cell harvester (FilterMAT; Skatron Instruments, Dalsletta, Norway). The dried fiber filter papers were mixed with 2 mL of scintillation fluid (OptiScint; Perkin-Elmer, Waltham, UK). […] The initial value and the asymptotic result for high concentrations were fixed to 0% and 100%, respectively, available on the web.

Data set [4] concerns the target CDK1/cyclin B. The data set can be described thus: CDK1/cyclin B kinase assay ([γ-33P] ATP, histone H1). It is filed as biochemical, starfish. The following applies: Table A1; read-out: IC50 on HsCDKs HsCDK1.
Another data set has as its system Pf3D7. The experiment in a line: [3H]hypoxanthine incorporation growth assay, Pf3D7. Format: cell-based, Plasmodium falciparum. The following applies: Plasmodium falciparum. Here is the method:
as §2, §3, §4, §5

Another data set relates to DYRK1A. Details: method as in PMID 17850214. The following applies: cited from earlier work.
The subject of the next data set is Pfmrk. Also on record: method as in PMID 10722743, PMID 11434907. The following applies: recombinant; cited from earlier work.
On the set-up of data set [5]: method as in PMID 12809528. The following applies: cited from earlier work.

T1 sequence (Q00535 whole entry): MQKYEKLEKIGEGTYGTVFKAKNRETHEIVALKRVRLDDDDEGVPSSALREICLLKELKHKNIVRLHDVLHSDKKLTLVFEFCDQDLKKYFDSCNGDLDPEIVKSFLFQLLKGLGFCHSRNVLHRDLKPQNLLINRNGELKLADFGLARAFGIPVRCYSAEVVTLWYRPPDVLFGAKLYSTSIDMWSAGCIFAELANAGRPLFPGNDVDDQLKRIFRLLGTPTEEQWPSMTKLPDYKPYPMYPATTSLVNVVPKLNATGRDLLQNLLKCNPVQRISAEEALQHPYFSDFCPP
T1 sequence (Q15078 99-307 partner limits assumed): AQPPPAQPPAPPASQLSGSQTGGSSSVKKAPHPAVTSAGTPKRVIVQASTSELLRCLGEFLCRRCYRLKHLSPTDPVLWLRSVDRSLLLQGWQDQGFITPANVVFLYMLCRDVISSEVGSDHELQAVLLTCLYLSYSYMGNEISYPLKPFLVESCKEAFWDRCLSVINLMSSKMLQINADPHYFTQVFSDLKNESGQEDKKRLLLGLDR
Procedure for GSK-3α/β: as §6, §7
GSK-3α/β (porcine brain, native) was assayed, as described for CDK1 but in Buffer A and using a GSK-3 specific substrate (GS-1: [sequence]pEDEEE) (pS stands for phosphorylated serine).

`CC[C@H](CO)Nc1nc(Nc2cccc(-c3ccccn3)c2)c2ncn(C(C)C)c2n1` [Compound 3]: the IC50 was 0.22 µM on CDK1/cyclin B [1]; 0.01 µM at CK1δ/ε [2]; 0.08 µM at CDK5/p25; 0.014 µM in the data set with CK1δ/ε [3]; more than 10 µM on GSK-3α/β. The amyloïd-β production entry in the data set with N2A-APP659 cell model is on record as “antagonizes amyloïd-β production”.
As to `NC1=NC(=O)/C(=C2\CCNC(=O)c3[nH]c(Br)cc32)N1` [hymenialdisine], in the data set with CK1, the IC50 was 0.03 µM.
In the case of `CC(C)[C@H](CO)Nc1nc(Nc2cccc(Cl)c2)c2ncn(C(C)C)c2n1` [Compound 2a, purvalanol A, reference compound], the IC50 was 8 µM in the data set with recombinant PfPK5; 8.12 µM in the data set with Pf7G8 (48 h, read-out: Growth IC50 Pf7G8); 8.12 µM in the data set on Pf7G8 (read-out: IC50 on P. falciparum Strains Pf7G8); 0.004 µM on CDK1/cyclin B [4]; 4.58 µM in the data set with Pf3D7 (48 h, read-out: Growth IC50 Pf3D7); 4.58 µM in the data set on Pf3D7 (read-out: IC50 on P. falciparum Strains Pf3D7). In the data set with Pfmrk, the IC50 was 26 µM. In the data set on DYRK1A (at 0.1 µM), the “remaining DYRK1A kinase activity” value is 88%.
As to `CC[C@H](CO)Nc1nc(NCc2ccccc2)c2ncn(C(C)C)c2n1` [Compound 1, (R)-roscovitine], in [5] (human, daily oral dose), the maximal tolerated dose is reported as 2 g. The oral bioavailability result in data set [5] (humans, oral administration) was “good oral bioavailability”. Further, in the data set on DYRK1A (at 1 µM), the “remaining DYRK1A kinase activity” value is reported as 87%.
